Source: PubChem BioAssay (NCI)
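Values below derive from 48-hour exposures of cells grown in 96-well plates, with endpoints linearly interpolated between the two concentrations bracketing the appropriate inhibition level. TGI marks complete inhibition of growth.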

What was measured:
Test in all cases: NCI anticancer screen, dose series, 48 h
[1] = system: RXF 393 renal
[2] = system: HCC-2998 colon
[3] = system: MOLT-4 leukemia
[4] = system: SW-620 colon
[5] = system: DU-145 prostate
[6] = system: HS 578T breast
[7] = system: HOP-92 NSCLC
[8] = system: CAKI-1 renal
[9] = system: KM12 colon
[10] = system: U251 CNS
[11] = system: OVCAR-4 ovarian
[12] = system: RPMI-8226 leukemia
[13] = system: SK-MEL-28 melanoma
[14] = system: HCT-15 colon
[15] = system: 786-0 renal
[16] = system: MDA-MB-435
[17] = system: OVCAR-8 ovarian
[18] = system: SK-MEL-2 melanoma
[19] = system: HCT-116 colon
[20] = system: ACHN renal
[21] = system: MCF7 breast
[22] = system: OVCAR-5 ovarian
[23] = system: A498 renal
[24] = system: CCRF-CEM leukemia
[25] = system: NCI-H23 lung
[26] = system: SF-295 CNS
[27] = system: K-562 leukemia
[28] = system: NCI-H226 lung
[29] = system: SK-OV-3 ovarian
[30] = system: MDA-N
[31] = system: HT29 colon
[32] = system: UO-31 renal
[33] = system: HOP-62 NSCLC
[34] = system: M14 melanoma
[35] = system: NCI/ADR-RES ovarian
[36] = system: NCI-H522 lung
[37] = system: SK-MEL-5 melanoma
[38] = system: T-47D breast
[39] = system: UACC-257 melanoma
[40] = system: LOX IMVI melanoma
[41] = system: SF-539 CNS
[42] = system: HL-60(TB) leukemia
[43] = system: MDA-MB-231 breast
[44] = system: PC-3 prostate
[45] = system: OVCAR-3 ovarian
[46] = system: NCI-H460 lung
[47] = system: EKVX NSCLC
[48] = system: SR leukemia
[49] = system: IGROV1 ovarian
[50] = system: SF-268 CNS
[51] = system: TK-10 renal
[52] = system: SNB-75 CNS
[53] = system: COLO 205 colon
[54] = system: SN12C renal
[55] = system: A549 NSCLC
[56] = system: MALME-3M melanoma
[57] = system: UACC-62 melanoma
[58] = system: SNB-19 CNS

## COc1ccc(C=C2C(=O)NC(=S)NC2=O)c2ccccc12
[1]
  TGI: 51.1 µM
[2]
  TGI: > 100 µM
[3]
  TGI: > 100 µM
[4]
  TGI: > 100 µM
[5]
  TGI: 64.7 µM
[6]
  TGI: 60.9 µM
[7]
  TGI: > 100 µM
[8]
  TGI: > 100 µM
[9]
  TGI: > 100 µM
[10]
  TGI: 83.3 µM
[11]
  TGI: > 100 µM
[12]
  TGI: > 100 µM
[13]
  TGI: > 100 µM
[14]
  TGI: > 100 µM
[15]
  TGI: > 100 µM
[16]
  TGI: > 100 µM
[17]
  TGI: > 100 µM
[18]
  TGI: 66.5 µM
[19]
  TGI: > 100 µM
[20]
  TGI: > 100 µM
[21]
  TGI: > 100 µM
[22]
  TGI: > 100 µM
[23]
  TGI: 0.479 µM
[24]
  TGI: > 100 µM
[25]
  TGI: > 100 µM
[26]
  TGI: > 100 µM
[27]
  TGI: > 100 µM
[28]
  TGI: 0.7 µM
[29]
  TGI: > 100 µM
[30]
  TGI: 40.6 µM
[31]
  TGI: 77.3 µM
[32]
  TGI: > 100 µM
[33]
  TGI: > 100 µM
[34]
  TGI: > 100 µM
[35]
  TGI: > 100 µM
[36]
  TGI: > 100 µM
[37]
  TGI: > 100 µM
[38]
  TGI: > 100 µM
[39]
  TGI: 41.5 µM
[40]
  TGI: > 100 µM
[41]
  TGI: 57.7 µM
[42]
  TGI: 52 µM
[43]
  TGI: > 100 µM
[44]
  TGI: 83.3 µM
[45]
  TGI: 75.7 µM
[46]
  TGI: > 100 µM
[47]
  TGI: > 100 µM
[48]
  TGI: 87.1 µM
[49]
  TGI: > 100 µM
[50]
  TGI: > 100 µM
[51]
  TGI: 58.2 µM

## Nc1nnnn1NC(=O)NCCCl
[1]
  TGI: > 10 µM
[2]
  TGI: > 10 µM
[3]
  TGI: > 10 µM
[4]
  TGI: > 10 µM
[5]
  TGI: > 10 µM
[6]
  TGI: > 10 µM
[7]
  TGI: > 10 µM
[8]
  TGI: > 10 µM
[52]
  TGI: > 10 µM
[9]
  TGI: > 10 µM
[10]
  TGI: > 10 µM
[11]
  TGI: > 10 µM
[12]
  TGI: > 10 µM
[13]
  TGI: > 10 µM
[14]
  TGI: > 10 µM
[53]
  TGI: > 10 µM
[54]
  TGI: > 10 µM
[15]
  TGI: > 10 µM
[16]
  TGI: > 10 µM
[17]
  TGI: > 10 µM
[18]
  TGI: > 10 µM
[55]
  TGI: > 10 µM
[56]
  TGI: > 10 µM
[57]
  TGI: > 10 µM
[19]
  TGI: > 10 µM
[20]
  TGI: > 10 µM
[21]
  TGI: > 10 µM
[23]
  TGI: > 10 µM
[24]
  TGI: > 10 µM
[25]
  TGI: > 10 µM
[26]
  TGI: > 10 µM
[27]
  TGI: > 10 µM
[28]
  TGI: > 10 µM
[58]
  TGI: > 10 µM
[29]
  TGI: > 10 µM
[30]
  TGI: > 10 µM
[31]
  TGI: > 10 µM
[32]
  TGI: > 10 µM
[33]
  TGI: > 10 µM
[34]
  TGI: > 10 µM
[35]
  TGI: > 10 µM
[36]
  TGI: > 10 µM
[37]
  TGI: > 10 µM
[38]
  TGI: > 10 µM
[39]
  TGI: > 10 µM
[40]
  TGI: > 10 µM
[41]
  TGI: > 10 µM
[42]
  TGI: > 10 µM
[43]
  TGI: > 10 µM
[44]
  TGI: > 10 µM
[45]
  TGI: > 10 µM
[46]
  TGI: > 10 µM
[47]
  TGI: > 10 µM
[48]
  TGI: > 10 µM
[49]
  TGI: > 10 µM
[50]
  TGI: > 10 µM
[51]
  TGI: > 10 µM

## Cc1cc2nn(C3CCCO3)nc2cc1C (stereo unspecified)
[1]
  TGI: > 100 µM
[2]
  TGI: > 100 µM
[3]
  TGI: > 100 µM
[5]
  TGI: > 100 µM
[6]
  TGI: > 100 µM
[8]
  TGI: > 100 µM
[52]
  TGI: > 100 µM
[10]
  TGI: > 100 µM
[11]
  TGI: > 100 µM
[14]
  TGI: > 100 µM
[53]
  TGI: > 100 µM
[54]
  TGI: > 100 µM
[15]
  TGI: > 100 µM
[16]
  TGI: > 100 µM
[17]
  TGI: > 100 µM
[18]
  TGI: > 100 µM
[55]
  TGI: > 100 µM
[56]
  TGI: > 100 µM
[57]
  TGI: > 100 µM
[19]
  TGI: > 100 µM
[21]
  TGI: > 100 µM
[22]
  TGI: > 100 µM
[23]
  TGI: > 100 µM
[24]
  TGI: > 100 µM
[25]
  TGI: > 100 µM
[26]
  TGI: > 100 µM
[27]
  TGI: > 100 µM
[28]
  TGI: > 100 µM
[29]
  TGI: > 100 µM
[30]
  TGI: > 100 µM
[31]
  TGI: > 100 µM
[33]
  TGI: > 100 µM
[34]
  TGI: > 100 µM
[35]
  TGI: > 100 µM
[36]
  TGI: > 100 µM
[37]
  TGI: > 100 µM
[38]
  TGI: > 100 µM
[39]
  TGI: > 100 µM
[41]
  TGI: > 100 µM
[43]
  TGI: > 100 µM
[44]
  TGI: > 100 µM
[45]
  TGI: > 100 µM
[46]
  TGI: > 100 µM
[47]
  TGI: > 100 µM
[48]
  TGI: > 100 µM
[49]
  TGI: > 100 µM
[50]
  TGI: > 100 µM
[51]
  TGI: > 100 µM
